One series addresses MNK1ΔCt (Homo sapiens, UniProt Q9BUB5). Briefly: ELONA binding of biotin-labeled aptamer. The settings on record: apMNKQ2-Bio at 20 nM, GST-MNK1ΔCt 0.2 μg/well. Here is the method:
(§1) FIGS. 5A-5C. Characterization of the interaction of aptamer apMNKQ2 with MNK1 by means of ELONA. (A) ELONAs in which GST-MNKs previously adsorbed in 96-well plates at 0.2 μg/well (3 pmol/well) with apMNKQ2-Bio at 20 nM were incubated (FIG. 5A). The bars represent the mean±SEM of at least 3 independent experiments (*p<0.05, **p<0.01, and ***p<0.001 with respect to the blank and c p<0.05, b p<0.01, and a p<0.001 MNK1b with respect to MNK1a). ELONAs in which concentrations of 0 to 500 nM of apMNKQ2 were incubated (FIGS. 5A and 5C).
(§2) To determine the binding of the aptamers to MNK1a or MNK1b, 200 ng of protein/well diluted in a coating solution (KPL, USA) in a final volume of 100 μL/well were added to a Maxisorp Nunc 96-well ELISA plate (ThermoFisher Scientific, USA). The plate was incubated overnight at 4° C. under stirring. Aptamers were then added at the corresponding concentration according to the assay, in a final volume of 100 μL/well of BSA-free aptamer buffer for 1 hour at 37° C. under stirring. All the aptamers used were labeled with biotin and had been previously denatured at 90° C. for 10 minutes and then kept at 4° C. for 10 minutes in the BSA-free aptamer buffer. To detect the binding of the aptamer to the protein, 100 μL/well of streptavidin-peroxidase (GE Healthcare, United Kingdom) diluted 1/1000 in the aptamer buffer at 37° C. for 1 hour under stirring were added. To develop the plate, 100 μL/well of ABTS solution (Roche, Switzerland) were added, and it was incubated in darkness at room temperature, with measurements being taken every 10 minutes at a wavelength of 405 nm in an Infinite F200 spectrophotometer (TECAN, Switzerland).

Another series deals with MNK1a (Homo sapiens, UniProt Q9BUB5). The series is described as follows: ELONA binding of biotin-labeled aptamer. Here is the method:
as §1, §2

The subject of another series is MDA-MB-468 cells. Briefly: MTT activity assay, aptamers transfected with Lipofectamine 2000. The settings on record: MDA-MB-468, MTT activity at 48 hours, 0 to 500 nM. The class given is cell-based, human. The protocol:
FIGS. 8A-8C. Effect of aptamer apMNKQ2 on MTT activity of breast cell lines. MCF7, MDA-MB-231, and MDA-MB-468 cells were seeded in 96-well plates at a density of 10^4 cells/well. […] The graphs represent the means±SEM of 3 independent experiments (*p<0.05, **p<0.01, and ***p<0.001 with respect to the control AT).
The Lipofectamine™ 2000 system (Invitrogen, USA) was used to treat cells with the different aptamers. To prepare the DNA-lipofectamine complex, lipofectamine and DNA were separately diluted in opti-MEM (Gibco, USA) and left to incubate at room temperature for 5 minutes. They were then mixed to form lipofectamine-DNA complexes and incubated for 20 minutes at room temperature. Finally, the mixture was added to the cells that had been washed twice with antibiotic-free medium to prevent the interference thereof with lipofectamine. The cells were incubated at 37° C. for 5 hours, after which the reagent was removed and a complete medium was added.
MTT activity. The cells were seeded in 96-well plates and after having been transfected, the culture medium was removed and 100 μL/well of MTT at 1 mg/ml in culture medium were added. […] After 48 hours, the reduction of MTT was determined by means of spectrophotometry in Infinite F200 (TECAN, Switzerland) at 540 nm.
The results were expressed as the percentage of viability with respect to the control or in absorbance units.
On the technique in general: Formazan colour is commonly taken as a measure of viable cells.

For series [1], the system named is orthotopic xenograft of 4T1 cells. Briefly: In vivo efficacy in metastatic orthotopic 4T1 mouse model. Details: species or system BALBc mice. Particulars: 3.6 mg/kg intravenously three times a week. Here is the method:
FIG. 21A-21E. In vivo efficacy of apMNKQ2 in a mouse metastatic model with an orthotopic xenograft of 4T1 cells. (A) Effect of apMNKQ2 aptamer on the proliferation of 4T1 cells (mouse breast tumor line). 4T1 cells were seeded in p96 at a density of 1.5×10^3 cells/well. […] The graph (FIG. 21A) represents the means±SEM of 3 independent experiments. (B) Effect of apMNKQ2 aptamer on migration and invasion of 4T1 cells. Cells were seeded in p6 at a density of 2×10^5 cells/well and transfected with 500 nM apMNKQ2 at 24 hours. At 6 hours they were deprived of serum, and after 24 hours they were collected and re-seeded (4×10^4 cells/well) in a transwell […]. At 24 hours (migration) or 48 h (invasion), the transwell membranes were stained with Hoechst and the cells that had passed through the fluorescence microscopy were quantified. Values (FIG. 21B) represent the mean±SEM of 2-3 independent experiments. In vivo efficacy of apMNKQ2 in a mouse metastatic model with an orthotopic xenograft of 4T1 cells. (C) Evolution of mouse weight on the days of treatment with apMNKQ2 (FIG. 21C). (D) Relative tumor volume (RTV) throughout the days of treatment (FIG. 21D). (E) Number of lung metastases (FIG. 21E). The number of metastases is analyzed by the reverse staining method (with Chinese ink) and the metastases grouped according to their size in four groups (0.5, 1, 2 and >2). The stacked bars correspond to each group and represent the mean±SEM of 8-9 animals (*p<0.05 with respect to the control group).
The anti-tumour activity and the effect on and spontaneous metastasis of aptamers in BALBc mice bearing ortothopically […] 4T1 breast tumours. […] As monitoring parameters, the tumor volume, assuming they are ellipsoids, and the weight of the animals were measured. […]
To study the ability of apMNKQ2 to reduce metastasis in vivo, an orthotopic xenograft model with a murine tumor line of triple negative breast cancer, 4T1, was used. […] First, the effect of apMNKQ2 on 4T1 cells in vitro was analyzed. […]

This is an account of results in patent US12492403B2, “Aptamers and the use thereof in the treatment of cancer” (FUNDACIÓN PARA LA INVESTIGACIÓN BIOMÉDICA DEL HOSPITAL …, priority 2018, dated 2025).

As usually defined, the Kd is a measure of binding affinity in units of concentration. Usually GI50 stands for the concentration at which growth is held to half of that of the control. A lower GI50 goes with greater sensitivity of the cells.

Sequence of MNK1a (Q9BUB5 1-424 isoform Q9BUB5-2): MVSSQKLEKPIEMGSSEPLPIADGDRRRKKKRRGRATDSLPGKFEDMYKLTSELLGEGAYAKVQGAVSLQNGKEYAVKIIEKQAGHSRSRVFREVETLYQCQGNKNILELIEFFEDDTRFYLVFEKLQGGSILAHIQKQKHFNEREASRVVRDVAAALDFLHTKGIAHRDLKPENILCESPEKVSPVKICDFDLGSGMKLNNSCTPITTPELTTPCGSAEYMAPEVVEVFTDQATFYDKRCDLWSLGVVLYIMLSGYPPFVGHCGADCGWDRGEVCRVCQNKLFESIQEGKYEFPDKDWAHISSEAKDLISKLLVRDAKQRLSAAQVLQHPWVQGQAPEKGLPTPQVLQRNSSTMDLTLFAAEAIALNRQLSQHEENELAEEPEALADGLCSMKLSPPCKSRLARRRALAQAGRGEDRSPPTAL
Sequence of MNK1ΔCt (Q9BUB5 1-335 isoform Q9BUB5-2 limits assumed): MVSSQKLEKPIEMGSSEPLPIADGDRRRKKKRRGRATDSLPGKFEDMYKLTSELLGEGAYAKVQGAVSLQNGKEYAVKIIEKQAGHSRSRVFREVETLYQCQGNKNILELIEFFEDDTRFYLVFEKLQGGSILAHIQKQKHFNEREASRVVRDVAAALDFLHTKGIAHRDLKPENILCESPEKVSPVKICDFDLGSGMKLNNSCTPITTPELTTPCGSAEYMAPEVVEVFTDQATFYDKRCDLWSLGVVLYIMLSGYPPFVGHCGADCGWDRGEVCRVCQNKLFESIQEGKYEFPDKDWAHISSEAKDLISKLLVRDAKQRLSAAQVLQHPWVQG

On to “5′TGGGGTGGGCGGGCGGGGGTGGGGGTGGT-3′ (DNA, backbone and methylation of C not given here; further chemistry not fully specified) [apMNKQ2]”, for which the “binding (ELONA)” value in the series with MNK1ΔCt is on record as “not significant”; in the series with MNK1a (apMNKQ2-Bio at 20 nM, GST-MNK1a 0.2 μg/well), “binds significantly”. The substance also returned a dissociation constant Kd in the series with MNK1a (ELONA, biotin-labeled aptamer 0 to 500 nM, GST-MNK1a) of 66.1 ± 20.2 nM. The substance further returned a GI50 with MDA-MB-468 cells of 19 nM. In addition, in series [1] (18 days), the “size of the tumors (relative tumor volume)” value is reported as “does not produce changes”. Moreover, in series [1] (18 days), the “weight of the mice” value is “does not produce changes”. In addition, the “number of lung metastasis” value in series [1] (statistically significant for metastasis of 2 mm) is listed as “decreased”.
